Reference: a compilation of properties of binary mixtures (doi:10.1524/zpch.2013.0326)

Assay: xn = mol fraction of the nth substance listed
Details: 101 kPa

c1ccccc1 + CCCCCCCC[n+]1ccc2ccccc2c1.O=S(=O)([N-]S(=O)(=O)C(F)(F)F)C(F)(F)F
x1 = 1
Details | viscosity [mPa·s]
298.15 K | 0.6
318.15 K | 0.47
338.15 K | 0.37
348.15 K | 0.34

CCCCCCCC[n+]1ccc2ccccc2c1.O=S(=O)([N-]S(=O)(=O)C(F)(F)F)C(F)(F)F + c1ccccc1
viscosity [mPa·s]
Details | 298.15 K | 308.15 K | 318.15 K | 328.15 K | 338.15 K | 348.15 K
x2 = 0 | – | 191 | – | 67.9 | 44.8 | 31.62
x2 = 0.0912 | 301 | 158.8 | 92 | 57.6 | 38.53 | 27.1
x2 = 0.1505 | 249 | 134.2 | 79.2 | – | 34.07 | 24.21
x2 = 0.295 | 150.9 | 85.5 | 52.8 | 34.86 | 24.3 | 17.61
x2 = 0.332 | 133.1 | 76.4 | – | – | 22.32 | –
x2 = 0.4679 | – | – | 26.93 | 18.76 | 13.7 | 10.41
x2 = 0.5663 | 37.49 | 24.56 | – | 12.25 | 9.21 | 7.15
x2 = 0.654 | 21.25 | 14.55 | 10.5 | 7.91 | 6.15 | –
x2 = 0.673 | – | 7.96 | 6.05 | – | – | 3.15
x2 = 0.7443 | – | 4.55 | 3.6 | 2.94 | 2.46 | 2.11
x2 = 0.8143 | 2.78 | 2.28 | 1.92 | 1.66 | – | 1.34
x2 = 0.8961 | 0.96 | 0.83 | 0.74 | 0.65 | 0.59 | –

CCCCCCCC[n+]1ccc2ccccc2c1.O=S(=O)([N-]S(=O)(=O)C(F)(F)F)C(F)(F)F + Cc1ccccc1
viscosity [mPa·s]
Details | 298.15 K | 308.15 K | 318.15 K | 328.15 K | 338.15 K | 348.15 K
x2 = 0 | 369 | 191 | 108.7 | 67.9 | – | 31.62
x2 = 0.0818 | – | – | 94.1 | 58.9 | 39.34 | 27.64
x2 = 0.1949 | 200 | 111.3 | – | 43.52 | 29.87 | 21.41
x2 = 0.2746 | 143.3 | – | 50.3 | 33.2 | 23.14 | 16.87
x2 = 0.3638 | 96.8 | 58.2 | 37.73 | – | 18.51 | 13.76
x2 = 0.4295 | 67.4 | – | 27.64 | – | 14.19 | 10.81
x2 = 0.4775 | – | – | 22.12 | 15.77 | – | 9
x2 = 0.4902 | – | 31.17 | 21.24 | 15.26 | 11.43 | 8.83
x2 = 0.5467 | 35.44 | 23.45 | 16.48 | – | 9.23 | 7.21
x2 = 0.6148 | 22.18 | 15.4 | – | 8.46 | 6.59 | 5.28
x2 = 0.7004 | 12.67 | 9.25 | 7.03 | – | 4.44 | 3.65
x2 = 0.7634 | 7.73 | 5.89 | 4.64 | 3.76 | 3.11 | 2.62
x2 = 0.8672 | 3.2 | 2.62 | – | 1.88 | 1.65 | 1.48

Cc1ccccc1 + CCCCCCCC[n+]1ccc2ccccc2c1.O=S(=O)([N-]S(=O)(=O)C(F)(F)F)C(F)(F)F
x1 = 1
Details | viscosity [mPa·s]
298.15 K | 0.56
318.15 K | 0.45
328.15 K | 0.4
338.15 K | 0.37
348.15 K | 0.33

CCCCCCCC[n+]1ccc2ccccc2c1.O=S(=O)([N-]S(=O)(=O)C(F)(F)F)C(F)(F)F + c1ccncc1
viscosity [mPa·s]
Details | 298.15 K | 308.15 K | 328.15 K | 338.15 K | 348.15 K
x2 = 0 | 369 | 191 | – | 44.8 | 31.62
x2 = 0.0945 | 292 | – | 57 | – | –
x2 = 0.1869 | 205 | 113.6 | 44.5 | 30.56 | 21.19
x2 = 0.2762 | 141.5 | 81.4 | 34.07 | 23.96 | 17.53
x2 = 0.3675 | 89.1 | 53.9 | 24.08 | 17.44 | 13.12
x2 = 0.4584 | 56.5 | 35.87 | 17.33 | 12.94 | 10.01
x2 = 0.5383 | 42.09 | 27.64 | 14.12 | – | 8.48
x2 = 0.637 | 19.55 | 13.92 | 8.02 | 6.34 | 5.11
x2 = 0.7274 | 10.36 | 7.76 | – | 3.95 | 3.3
x2 = 0.8199 | 6.68 | – | 3.64 | – | 2.67
x2 = 0.9064 | 3.11 | 2.6 | 1.92 | 1.68 | 1.49

c1ccsc1 + CCCCCCCC[n+]1ccc2ccccc2c1.O=S(=O)([N-]S(=O)(=O)C(F)(F)F)C(F)(F)F
x1 = 1
Details | viscosity [mPa·s]
298.15 K | 0.62
308.15 K | 0.54
318.15 K | 0.48
328.15 K | 0.42
338.15 K | 0.38

CCCCCCCC[n+]1ccc2ccccc2c1.O=S(=O)([N-]S(=O)(=O)C(F)(F)F)C(F)(F)F + c1ccsc1
viscosity [mPa·s]
Details | 298.15 K | 308.15 K | 318.15 K | 328.15 K | 338.15 K | 348.15 K
x2 = 0 | 369 | 191 | – | 67.9 | 44.8 | 31.62
x2 = 0.0964 | 300 | – | – | 57.9 | 38.71 | 27.2
x2 = 0.1907 | 215 | 118 | 70.9 | 45.7 | 33.3 | 22.4
x2 = 0.2739 | 155.2 | 88.3 | – | 36.23 | 25.31 | 18.35
x2 = 0.3572 | 112.1 | 66.1 | 42.17 | 28.66 | – | 15.04
x2 = 0.4456 | 72.5 | 44.61 | 29.44 | 20.52 | 14.97 | –
x2 = 0.542 | – | – | 19.21 | 13.96 | 10.53 | 8.22
x2 = 0.6385 | 23.26 | – | 11.79 | 8.96 | 6.98 | 5.57
x2 = 0.7244 | 12.82 | 9.45 | 7.2 | 5.63 | 4.53 | 3.73
x2 = 0.821 | – | – | 4.88 | 4.03 | 3.4 | 2.91
x2 = 0.8627 | 5.27 | 4.26 | 3.53 | 2.98 | 2.55 | 2.22
x2 = 0.9065 | 3.34 | – | – | 2.04 | 1.78 | 1.57
x2 = 0.935 | 2.38 | 2.01 | 1.73 | 1.51 | 1.34 | 1.25

c1ccncc1 + CCCCCCCC[n+]1ccc2ccccc2c1.O=S(=O)([N-]S(=O)(=O)C(F)(F)F)C(F)(F)F
x1 = 1
Details | viscosity [mPa·s]
218.15 K | 0.67
298.15 K | 0.89
308.15 K | 0.76
328.15 K | 0.59
348.15 K | 0.52
